# Measured values from PubChem BioAssay AID1963966 (Molecular Pharmacology Branch, DTP, NCI, 2024).
# pIC50: −log10 of the molar value. “And” between values parts separate entries of the source, which are not always exact repeats. Identical values can stand only once.
# System: 935938-334-R-J1-PDC spheroids with HUVEC/MSC, viability
# Test: Anticancer human tumor 935938-334-R-J1-PDC patient-derived small intestine adenocarcinoma cell line growth inhibition [PI3K]
# Conditions: for viability, T/C: stronger effect = lower value
# Source text: Combinatorial screen of targeted agents with the PI3K inhibitors inavolisib, alpelisib, duvelisib, and copanlisib in multi-cell type tumor spheroids
# A high-throughput screen of multi-cell type tumor spheroids was designed to identify active combinations of targeted small molecules and PI3K pathway inhibitors. Complex spheroids include a stromal component modeled by human endothelial cells (HUVEC) and fibroblasts modeled by human mesenchymal stem cells (MSCs). The concentration ranges selected for each drug and investigational agent were based upon clinically achievable concentrations if the clinical Cmax of the agent was known.
# Compounds. The drugs and investigational agents: inavolisib (NSC800729), alpelisib (NSC765974), duvelisib (NSC772469), copanlisib (NSC816437), ipatasertib (NSC767898), afuresertib (NSC778305), talazoparib (NSC767125), sapanisertib (NSC764658), selumetinib (NSC741078), tovorafenib (DAY101, NSC766906), vemurafenib (NSC761431), ravoxertinib (NSC781343), sotorasib (NSC818433), MRTX1133 (NSC 836407), abemaciclib (NSC 768073), palbociclib (NSC758247), venetoclax (NSC 766270), SY5609 (NSC837396), enzalutamide (NSC755605), and darolutamide (NSC825331), were obtained from the National Cancer Institute (NCI) Developmental Therapeutics Program Chemical Repository. The FDA-approved anticancer drug set is available from the NCI Developmental Therapeutics Program. […] The stock solutions were prepared in dimethyl sulfoxide (DMSO, Sigma-Aldrich, St. Louis, MO, cat. D2650) at 800-fold the tested concentration and stored at -70 degrees C prior to their use. All drugs and investigational agents were tested over a range starting from a high concentration at or near the clinical Cmax and decreasing in half-log increments. If the clinical Cmax for an agent had not been determined, the highest concentration tested was 10 microM.
# Cell Culture. All cells were maintained in an incubator at 37 degrees C and 5% CO2 with 95% humidity. The PDC lines were cultured according to standard operating procedures established by the NCI PDMR (https://pdmr.cancer.gov/sops/default.htm). All PDCs were thawed and cultured in Matrigel-coated flasks prepared with a working solution of 1X Ham's F-12 nutrient mix, without supplementation (Invitrogen, Waltham, MA, cat. 11765054), 100 U/mL penicillin-streptomycin (Invitrogen, cat. 15140122), and 2.5% Matrigel (Corning Inc., Corning, NY, cat. 354248) for the first three passages. The 354836-022-R-J1-PDC, 475296-252-R-J1-PDC, and 997726-040-R-J2-PDC lines were cultured in 6A media, which includes advanced DMEM/F-12 (Thermo Fisher Scientific, cat. 12634028), 10 mM HEPES (Thermo Fisher Scientific, cat. 15630080), 1X GlutaMAX supplement (Thermo Fisher Scientific, cat. 35050061), 0.1 mg/mL primocin (InvivoGen, San Diego, CA, cat. ant-pm-2), 10% defined fetal bovine serum, heat inactivated (HyClone Laboratories Inc., Logan, UT, cat. SH30070.03HI), 50% L-WRN conditioned media (ATCC, cat. CRL-3276), 1.25 mM N-Acetyl-L-cysteine (Sigma-Aldrich, cat. A9165), 10 mM nicotinamide (Sigma-Aldrich, cat. N0636), 1X B-27 supplement (Thermo Fisher Scientific, cat. 17504044), 1X N-2 supplement (Thermo Fisher Scientific, cat. 17502048), and 10 microM Y-27632 dihydrochloride (Tocris Bioscience, Bristol, United Kingdom, cat. 1254). The 624824-186-R-J2-PDC line was cultured in 6C/Colon 1B media, which includes all 6A media components plus 50 ng/mL human EGF recombinant protein (Thermo Fisher Scientific, cat. PHG0311). […]
# [1] = compound alone, run of 04/25/2023
# 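Further: compound exposure lasted seven days before viability was read.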
# 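Wherever viability, T/C is given: percent of vehicle DMSO treated spheroid viability so 100% = untreated.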
Structure (SMILES),"viability, T/C (compound 0.01 µM)","viability, T/C (compound 0.0316 µM)",pIC50 (curve of compound),"viability, T/C (compound 0.1 µM)","viability, T/C (compound 0.316 µM)","viability, T/C (compound 10 µM)",IC50 (curve of compound),also measured
CC(=O)c1c(C)c2cnc(Nc3ccc(N4CCNCC4)cn3)nc2n(C2CCCC2)c1=O,87.7% [middle of 4 runs],92.3% [middle of 4 runs],< 7.00 and 7.25,,,,,"viability, T/C (compound 0.001 µM): 93.6% [middle of 4 runs]; viability, T/C (compound 0.00316 µM): 89.5% [middle of 4 runs]"
CC(C)n1nc(-c2ccc3oc(N)nc3c2)c2c(N)ncnc21,,79.1% [middle of 4 runs],< 7.00 and 7.04,52.8% [middle of 4 runs],,,,"viability, T/C (compound 0.000316 µM): 94.6% [middle of 4 runs]; viability, T/C (compound 0.001 µM): 105% [middle of 4 runs]; viability, T/C (compound 0.00316 µM): 106% [middle of 4 runs]"
CC(Cn1ccc(-c2ccc(C#N)c(Cl)c2)n1)NC(=O)c1cc(C(C)O)[nH]n1 (centres undefined),,90.6% [middle of 4 runs],< 5.00,,101% [middle of 4 runs],,,
CC(Nc1ccc2c(c1)OCCn1cc(N3C(=O)OCC3C(F)F)nc1-2)C(N)=O (centres undefined),,91% [middle of 8 runs],,,,,,"pIC50 (compound alone, run of 04/24/2023): < 6.00"
CC(Nc1ncnc2nc[nH]c12)c1cc2cccc(Cl)c2c(=O)n1-c1ccccc1 (centres undefined),,99% [middle of 8 runs],,,,80.4% [middle of 8 runs],,pIC50 [1]: < 5.00
CC1(C)CCC(CN2CCN(c3ccc(C(=O)NS(=O)(=O)c4ccc(NCC5CCOCC5)c([N+](=O)[O-])c4)c(Oc4cnc5[nH]ccc5c4)c3)CC2)=C(c2ccc(Cl)cc2)C1,,98.9% [middle of 4 runs],,88.2% [middle of 4 runs],,,,"viability, T/C (compound 3.16 µM): 93.3% [middle of 4 runs]"
CCCS(=O)(=O)Nc1ccc(F)c(C(=O)c2c[nH]c3ncc(-c4ccc(Cl)cc4)cc23)c1F,,98.8% [middle of 4 runs],,111% [middle of 4 runs],108% [middle of 4 runs],31% [middle of 4 runs],7.38 µM [middle of 4 runs],"viability, T/C (compound 3.16 µM): 110% [middle of 4 runs]"
CCN1CCN(Cc2ccc(Nc3ncc(F)c(-c4cc(F)c5nc(C)n(C(C)C)c5c4)n3)nc2)CC1,89.4% [middle of 4 runs],,,,49.4% [middle of 4 runs],,269 nM [middle of 4 runs],
CNC(=O)c1ccc(N2C(=S)N(c3ccc(C#N)c(C(F)(F)F)c3)C(=O)C2(C)C)cc1F,,95.8% [middle of 4 runs],< 5.00,97.6% [middle of 4 runs],96.2% [middle of 4 runs],97.4% [middle of 4 runs],,"viability, T/C (compound 3.16 µM): 101% [middle of 4 runs]"
COc1c(OCCCN2CCOCC2)ccc2c3n(c(=NC(=O)c4cnc(N)nc4)nc12)CCN3,93.9% [middle of 8 runs],82.8% [middle of 8 runs],,52.5% [middle of 8 runs],38.6% [middle of 8 runs],,,"viability, T/C (compound 0.00316 µM): 87.7% [middle of 8 runs]; viability, T/C (compound 1 µM): 39% [middle of 8 runs]; IC50 [1]: 120 nM [middle of 8 runs]"
C[C@@H](NC(=O)c1ncnc(N)c1Cl)c1ncc(C(=O)Nc2cc(C(F)(F)F)c(Cl)cn2)s1,,109% [middle of 4 runs],< 5.00,,,83.3% [middle of 4 runs],,
Cn1cnc2c(F)c(Nc3ccc(Br)cc3Cl)c(C(=O)NOCCO)cc21,,,,,,,55.5 nM [middle of 4 runs],"viability, T/C (compound 0.03 µM): 59% [middle of 4 runs]; viability, T/C (compound 0.0949 µM): 48.3% [middle of 4 runs]; viability, T/C (compound 0.3 µM): 33.4% [middle of 4 runs]; viability, T/C (compound 0.949 µM): 27.6% [middle of 4 runs]; viability, T/C (compound 3 µM): 20.4% [middle of 4 runs]"
Cn1ncnc1[C@H]1c2n[nH]c(=O)c3cc(F)cc(c23)N[C@@H]1c1ccc(F)cc1,101% [middle of 4 runs],94.7% [middle of 4 runs],< 7.00,97.3% [middle of 4 runs],,,,"viability, T/C (compound 0.000316 µM): 91.7% [middle of 4 runs]; viability, T/C (compound 0.001 µM): 113% and 106% (2×) and 109%"
